Values joined by “and” are separate entries in the source; they are usually repeats but may differ in a detail not shown here. Equal values may be shown once. “Also recorded” adds a separate entry of the source.
Key:
[1] = test system: H+, K+-ATPase; assay: Intracellular pH recovery in isolated rat fundic (F1) glands; assay type: cell-based; details: for alkalinization rate of F1 glands: 100 μM secretagogue alone
Description: Male Sprague Dawley rats weighing 200-300 g were housed in climate and humidity controlled, light cycled rooms and fed standard chow with free access to water. Prior to experiments, animals were fasted while allowing free access to water for 18-24 hours to reduce basal acid secretion. Following isoflurane anesthesia the animals were sacrificed, an abdominal incision was made exposing the stomach. After isolating the esophagus and duodenal junctures a total gastrectomy was performed with 1-2 cm of esophagus remaining attached to the gastrectomy. We included the esophageal juncture to have a common landmark for all fundic isolations. While holding the esophagus with forceps approximately 3 mm of fundus was removed with 5 mm of the intact esophagus. The removed fundic tissue was placed in ice cold HEPES-buffered Ringer-solution (pH adjusted to 7.4 at 4° C.) and transferred to the stage of a dissection microscope. The fundic glands were visualized under the microscope at 50× magnification. Glands adjacent to the esophageal junction were hand dissected. Following isolation, individual glands were adhered to cover slips that had been pretreated with the biological adhesive Cell-Tak (Cell-Tak™ cell adhesive, BD Biosciences; Bedford, Mass.) […] Molecular Probes, OR USA)) for 15 minutes. […] Measurements were performed in the epifluorescence mode with 60×/0.80 and 40×/0.90 objectives. […] Data points were acquired every 15 s. […] Acid extrusion was monitored in the absence of bicarbonate. […] All data are summarized as mean±S.E. Significance was determined using the one-way ANOVA test with p<0.05 considered to be statistically significant. All chemicals used were obtained from Sigma and Molecular Probes.

[2] = target: T1, H+/K+-ATPase (Rattus norvegicus, UniProt P09626); assay: Intracellular pH recovery in rat corpus glands (comparison with fundus); assay type: cell-based
T1 construct: Individual glands were isolated using a hand-dissection technique; from tissue; host or cells: hand-dissected gastric glands of Sprague-Dawley rats (corpus/antrum)
Description: Molecular Probes, OR USA)) for 15 minutes. […] Measurements were performed in the epifluorescence mode with 60×/0.80 and 40×/0.90 objectives. […] Data points were acquired every 15 s. […] Acid extrusion was monitored in the absence of bicarbonate. […] All data are summarized as mean±S.E. Significance was determined using the one-way ANOVA test with p<0.05 considered to be statistically significant. All chemicals used were obtained from Sigma and Molecular Probes.

[3] = target: T1, H+/K+-ATPase; assay: Intracellular pH recovery (proton extrusion) in isolated rat gastric glands, NH4Cl prepulse, BCECF; assay type: cell-based
Description: Animals. Sprague-Dawley rats 150-250 g (Charles River Laboratory)) were housed in climate- and humidity-controlled, light-cycled rooms, fed standard chow with free access to water, and handled according to the humane practices of animal care established by the Yale Animal Care. Prior to experiments, animals were fasted for 18-24 hours with free access to water.
(§1) Isolation of rat and human gastric Glands. Following removal of the stomach, the stomach was opened longitudinally and the corpus and antrum isolated and sliced into 0.5 cm square sections, and washed with cold Ringer solution to remove residual food particles. The tissues were transferred to the stage of a dissecting microscope. Individual glands were isolated using a hand-dissection technique as described previously^36. Following isolation, individual isolated glands were allowed to adhere to cover slips that had been pre-coated with Cell-Tak (Collaborative Research, Bedford, Mass.) and were transferred to the stage of an inverted microscope.
(§2) Digital imaging for intracellular pH. Isolated gastric glands were incubated in a HEPES-buffered Ringer's solution containing either 10 μmol of the pH-sensitive dye BCECF-AM (2′,7′)-bis-(2-carboxyethyl)-5-(and-6)-carboxy-fluorescin, aceto-methyl ester (Molecular Probes, Eugene, Oreg.) for 10 minutes as described previously^37-39. […] A minimum of 8 cells or regions was selected per gland.
(§3) Proton extrusion by individual parietal cells was monitored by observing recovery of pHi after acid loading the cells with Na^+ free HEPES solution containing 20 mM NH4Cl.
(§4) The recovery rates are expressed as the ΔpH/min, and were calculated over the pH range of 6.5-6.8.

[4] = target: H+/K+-ATPase (Homo sapiens, UniProt P20648); assay: Intracellular pH recovery (proton extrusion) in isolated human gastric glands; assay type: cell-based; details: histamine stimulation
Text: as §1, §2, §3, §4

[5] = test system: histamine induced gastric acid secretion; assay: Whole stomach pH measurements, ex vivo rat whole stomach preparation
Description: Whole stomach pH measurements. Before the experiments animals were fasted for 24 h to reduce basal acid secretion to a consistent minimum. Animals were killed with an overdose of isoflurane and an abdominal incision was made. The stomach was ligated at the duodenal and esophageal junction and excised. Then 1 ml of non buffered, isotonic saline (140 mM) was infused into the lumen of the stomach. […] The stomachs were then placed in either oxygenated HEPES-buffered Ringer solution or in the same solution containing 100 μM histamine alone or additionally 300 μM ZnCl2 (pH 7.4) and maintained at 37° C. After 1 hour the stomach contents were aspirated and the pH was recorded.

[6] = target: T1, H+/K+-ATPase; assay: Oral zinc supplementation in rats, histamine induced proton extrusion of isolated glands; assay type: in vivo
Description: Oral Zinc supplementation in rats. These studies were designed to modulate acid secretion by increasing dietary zinc. In these studies we used an oral ZnCl2 solution (zinc chloride in tap water). The animals had free access to food and the zinc containing water for the duration of the study. […] Animals had free access to water prior to the experiment and were fed with standard chow until 24 hours before the experiment, at which point they had free access to ZnCl2 containing water only. After the 5 days exposure period and the 24 hour fast, the animals were sacrificed and a total gastrectomy was performed on the animals. Individual gastric glands were isolated with the hand dissection technique described above.

T1 sequence (P09626 whole entry): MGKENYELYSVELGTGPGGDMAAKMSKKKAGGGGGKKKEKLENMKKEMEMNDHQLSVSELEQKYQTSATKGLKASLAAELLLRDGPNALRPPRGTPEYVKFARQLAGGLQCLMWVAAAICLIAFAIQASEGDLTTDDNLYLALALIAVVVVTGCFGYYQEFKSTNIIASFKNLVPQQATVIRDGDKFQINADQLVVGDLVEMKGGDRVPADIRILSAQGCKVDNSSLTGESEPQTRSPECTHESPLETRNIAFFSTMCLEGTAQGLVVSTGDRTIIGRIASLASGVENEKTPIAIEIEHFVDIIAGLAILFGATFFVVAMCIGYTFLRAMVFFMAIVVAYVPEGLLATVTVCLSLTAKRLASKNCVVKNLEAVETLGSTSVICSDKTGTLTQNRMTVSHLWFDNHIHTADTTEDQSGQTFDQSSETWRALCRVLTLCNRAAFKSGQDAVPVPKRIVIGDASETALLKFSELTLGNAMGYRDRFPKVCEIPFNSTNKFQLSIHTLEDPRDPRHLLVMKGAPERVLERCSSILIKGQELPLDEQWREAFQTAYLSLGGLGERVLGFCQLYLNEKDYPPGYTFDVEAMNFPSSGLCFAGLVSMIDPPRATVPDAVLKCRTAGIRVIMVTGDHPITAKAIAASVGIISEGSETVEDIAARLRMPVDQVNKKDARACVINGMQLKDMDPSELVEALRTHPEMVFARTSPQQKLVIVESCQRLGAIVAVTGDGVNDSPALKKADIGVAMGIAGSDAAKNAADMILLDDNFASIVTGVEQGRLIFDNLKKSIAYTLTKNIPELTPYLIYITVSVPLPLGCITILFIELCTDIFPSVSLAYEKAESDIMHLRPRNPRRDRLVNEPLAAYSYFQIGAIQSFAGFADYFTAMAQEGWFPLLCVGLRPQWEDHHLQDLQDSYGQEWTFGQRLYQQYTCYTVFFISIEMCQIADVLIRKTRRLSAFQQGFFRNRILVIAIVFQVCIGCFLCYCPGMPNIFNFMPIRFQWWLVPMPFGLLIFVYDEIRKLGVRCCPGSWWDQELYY
T1 sequence (P18598 whole entry partner): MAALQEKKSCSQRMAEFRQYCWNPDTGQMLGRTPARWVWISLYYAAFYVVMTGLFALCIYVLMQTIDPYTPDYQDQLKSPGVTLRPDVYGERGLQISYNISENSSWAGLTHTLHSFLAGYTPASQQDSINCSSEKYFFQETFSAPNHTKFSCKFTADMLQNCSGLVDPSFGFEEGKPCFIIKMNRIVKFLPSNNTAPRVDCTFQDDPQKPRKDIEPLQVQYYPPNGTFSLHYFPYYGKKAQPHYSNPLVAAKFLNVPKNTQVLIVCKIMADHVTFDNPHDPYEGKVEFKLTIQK
Sequence of H+/K+-ATPase (Homo sapiens, UniProt P20648) (P20648 whole entry): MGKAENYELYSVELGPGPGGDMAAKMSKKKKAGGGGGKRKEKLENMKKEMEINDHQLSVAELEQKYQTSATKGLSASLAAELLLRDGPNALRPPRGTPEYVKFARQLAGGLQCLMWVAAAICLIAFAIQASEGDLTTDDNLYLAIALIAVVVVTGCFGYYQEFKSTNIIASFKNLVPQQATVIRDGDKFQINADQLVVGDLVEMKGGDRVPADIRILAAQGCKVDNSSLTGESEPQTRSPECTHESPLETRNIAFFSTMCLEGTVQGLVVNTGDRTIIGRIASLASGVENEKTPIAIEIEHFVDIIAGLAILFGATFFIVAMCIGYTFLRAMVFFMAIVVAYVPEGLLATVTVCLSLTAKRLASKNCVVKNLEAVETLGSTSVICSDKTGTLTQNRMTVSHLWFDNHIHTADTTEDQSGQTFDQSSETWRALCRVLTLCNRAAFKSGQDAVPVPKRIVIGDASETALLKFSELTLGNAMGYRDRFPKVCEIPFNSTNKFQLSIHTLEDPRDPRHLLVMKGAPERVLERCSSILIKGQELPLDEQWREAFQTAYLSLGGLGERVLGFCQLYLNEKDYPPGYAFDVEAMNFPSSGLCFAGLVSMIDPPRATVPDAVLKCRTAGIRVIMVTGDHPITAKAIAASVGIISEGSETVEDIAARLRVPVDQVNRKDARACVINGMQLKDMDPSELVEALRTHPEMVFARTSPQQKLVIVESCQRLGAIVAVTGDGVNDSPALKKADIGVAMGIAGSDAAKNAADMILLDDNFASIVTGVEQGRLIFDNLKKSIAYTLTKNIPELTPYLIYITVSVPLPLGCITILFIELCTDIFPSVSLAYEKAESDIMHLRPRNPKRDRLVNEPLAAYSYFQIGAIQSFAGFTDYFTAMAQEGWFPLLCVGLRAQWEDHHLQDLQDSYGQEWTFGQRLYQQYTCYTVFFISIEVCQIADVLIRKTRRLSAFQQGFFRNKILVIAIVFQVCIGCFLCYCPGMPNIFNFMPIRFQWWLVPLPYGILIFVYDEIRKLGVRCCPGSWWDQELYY
Sequence of H+/K+-ATPase (Homo sapiens, UniProt P20648) (P51164 whole entry partner): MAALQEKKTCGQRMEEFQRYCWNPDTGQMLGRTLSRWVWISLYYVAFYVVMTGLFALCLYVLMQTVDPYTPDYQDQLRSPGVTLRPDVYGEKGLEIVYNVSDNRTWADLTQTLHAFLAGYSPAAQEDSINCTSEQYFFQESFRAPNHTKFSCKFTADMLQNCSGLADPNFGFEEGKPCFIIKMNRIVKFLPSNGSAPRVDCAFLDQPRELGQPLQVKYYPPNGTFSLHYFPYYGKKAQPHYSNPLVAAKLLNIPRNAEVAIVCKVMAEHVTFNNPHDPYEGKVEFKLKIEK

Cc1cccc(C)c1CNc1cc(C(=O)NCCO)cn2c(C)c(C)nc12 [AZD0865]
inhibition of acid secretion in F1 (fundic) glands, in words ([1]; omeprazole 200 μM with histamine 100 μM, AZD0865 10 μM): does not completely inhibit proton extrusion
inhibition of acid secretion in corpus glands, in words ([2]; omeprazole 200 μM, AZD0865 10 μM): effectively inhibits acid secretion; also recorded: strong inhibition

[Cl-].[Cl-].[Zn+2] [ZnCl2, zinc chloride]
inhibition of proton extrusion compared to the histamine induced rate ([3]; 300 μM ZnCl2, 100 μM histamine): 98%
effect on histamine induced proton efflux from gastric glands ([3]; 300 umol ZnCl2, histamine 100 μM): blocked
onset of inhibition of histamine induced acid secretion ([3]; ZnCl2 300 μM added to superfusion bath, histamine 100 μM): abolished after a few seconds
effect on histamine stimulated proton efflux in human gastric glands [4]: abolished
mean luminal pH ([5]; 100 μM histamine and 300 μM ZnCl2, 1 hour): 4.54±0.065
whole stomach pH in words ([5]; 100 μmol histamine and 300 μmol ZnCl2): higher pH than those in HEPES-buffered Ringer solution and histamine
histamine induced proton extrusion rate after oral ZnCl2 ([6]; 0.5 mg/kg/d ZnCl2 in drinking water for 5 days): 0.034±0.0036
histamine induced proton extrusion rate after oral ZnCl2 ([6]; 150 mg/kg/d ZnCl2 in drinking water for 5 days): 0.022±0.0045

CC(=O)OCC[N+](C)(C)C [acetylcholine]
alkalinization rate of F1 glands [1]: 0.075±0.0015 ΔpHi/min

NCCc1c[nH]cn1 [histamine]
mean luminal pH ([5]; 100 μM histamine, 1 hour): 3.15±0.27
recovery rate (proton extrusion) of histamine stimulated parietal cells ([6]; control group, histamine alone, no zinc): 0.051±0.004
effect of secretagogue on F1 zone glands in comparison to controls, in words ([1]; 100 μM): no effect
alkalinization rate of F1 glands [1]: 0.04±0.0079 ΔpHi/min and 0.042±0.007 ΔpHi/min
histamine stimulated proton extrusion rate in corpus gland ([2]; 100 μM histamine): 0.056±0.008 ΔpHi/min

COc1ccc2[nH]c([S+]([O-])Cc3ncc(C)c(OC)c3C)nc2c1 (centres unmarked) [omeprazole]
alkalinization rate of fundic glands ([1]; 200 μM omeprazole and 100 μM histamine): 0.045±0.002 ΔpHi/min

From patent US11510894B2, “Fast acting inhibitor of gastric acid secretion” (priority 2006, dated 2022)
